The values below come from patent US5648379A (priority 1990, dated 1997).

Test [1] has as its system neuraminidase. As to conditions: type of neuraminidase not identified; cited from earlier work.
Test [2] concerns the target N2 influenza virus neuraminidase (Influenza A virus, UniProt P06820). As to the kind of experiment: biochemical.
In test [3] the test system is Neuraminidase in at least some strains of influenza or parainfluenza viruses. The conditions noted are these: in vitro; Zakstel'skaya et al. 1972; cited from earlier work.
Test [4] concerns the target N9 neuraminidase (Influenza A virus, UniProt P03472). The experiment in a line: biochemical. As to conditions: read-out: Ki, inhibition of N9 neuraminidase.
Test [5] relates to influenza A/Singapore/1/57 (H2N2). The experiment in a line: microbe, parasite or virus in culture. It counts as cell-based. The conditions noted are these: H2N2, MDCK, 72 h, read-out: IC50 Plaque Reduction, Influenza A.
In test [6] the test system is Influenza B/Victoria/102/85. As to the kind of experiment: microbe, parasite or virus in culture. It counts as cell-based. As to conditions: MDCK, 72 h, read-out: IC50 Plaque Reduction, Influenza B.
Test [7] concerns H2N2 influenza A virus (A/Sing/1/57). The class given is in vivo, mice. The conditions noted are these: for % AUC (lung virus titre, compared to untreated mice): days 1-3; for titre of virus in lung tissue: intranasal, before and during challenge, 1 to 3 days after infection.
The subject of test [8] is Neuraminidase from Arthrobacter sialophilus. As to conditions: in vitro; Kumar et al. 1981, 1982; cited from earlier work.
Test [9] has as its system influenza virus. The experiment in a line: microbe, parasite or virus in culture. It counts as cell-based. As to conditions: unidentified influenza virus, read-out: IC50 plaque reduction.
Setting [10] is: N2, 37° C., read-out: Ki, inhibition of N2 neuraminidase.
[11] abbreviates: Experiment 1, 25 mg/kg intranasal.
Where [12] appears, read: Experiment 2, 12.5 mg/kg intranasal.
Setting [13] is: Experiment 3, 12.5 mg/kg intranasal.

The structures appear in SMILES notation. In brackets after ≈: the same amount, converted by molar mass. Like-named read-outs stand apart in the source and are kept apart here.

Chain of N9 neuraminidase (P03472 whole entry, looked up): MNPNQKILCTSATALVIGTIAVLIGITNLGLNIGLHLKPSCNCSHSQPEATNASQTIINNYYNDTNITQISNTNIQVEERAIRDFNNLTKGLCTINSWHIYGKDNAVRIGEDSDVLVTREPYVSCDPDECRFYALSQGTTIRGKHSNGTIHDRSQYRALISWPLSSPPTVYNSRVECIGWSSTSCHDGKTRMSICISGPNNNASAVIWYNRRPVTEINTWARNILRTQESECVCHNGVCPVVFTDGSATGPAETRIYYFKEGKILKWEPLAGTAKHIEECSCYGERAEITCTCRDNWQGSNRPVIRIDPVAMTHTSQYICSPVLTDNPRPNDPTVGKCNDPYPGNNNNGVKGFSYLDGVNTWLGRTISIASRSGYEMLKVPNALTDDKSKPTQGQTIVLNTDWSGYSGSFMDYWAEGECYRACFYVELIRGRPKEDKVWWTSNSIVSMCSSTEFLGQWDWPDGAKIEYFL
Chain of N2 influenza virus neuraminidase (P06820 whole entry, looked up): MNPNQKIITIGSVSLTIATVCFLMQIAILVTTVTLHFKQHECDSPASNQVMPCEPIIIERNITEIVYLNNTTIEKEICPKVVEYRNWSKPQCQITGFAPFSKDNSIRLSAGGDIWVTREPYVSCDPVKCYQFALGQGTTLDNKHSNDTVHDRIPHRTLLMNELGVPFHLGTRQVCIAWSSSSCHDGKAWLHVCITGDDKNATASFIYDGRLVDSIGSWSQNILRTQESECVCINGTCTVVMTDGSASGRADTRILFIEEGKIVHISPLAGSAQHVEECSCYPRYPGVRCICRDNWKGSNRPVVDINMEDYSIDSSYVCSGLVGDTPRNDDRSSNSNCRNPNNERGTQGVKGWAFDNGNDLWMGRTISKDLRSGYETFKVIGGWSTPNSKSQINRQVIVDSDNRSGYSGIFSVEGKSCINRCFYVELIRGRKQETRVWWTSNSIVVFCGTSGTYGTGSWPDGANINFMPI

Regarding `N[C@H]1[C@H]([C@H](O)[C@H](O)CO)SC(C(=O)O)=C[C@@H]1O` [2-deoxy-2,3-didehydro-6-thioneuraminic acid], the inhibition of neuraminidase result in [1] is listed as “reported to inhibit neuraminidase”.
With `CC(=O)N[C@H]1[C@H]([C@H](O)[C@H](O)CO)OC(C(=O)O)=C[C@@H]1N(C)C` [Compound 23, Sodium 5-acetamido-4-N,N-dimethylamino-2,3,4,5-tetradeoxy-D-glycero-D-galacto-non-2-enopyranosonate], the Ki (usually a dissociation constant, usually derived from enzyme kinetics or from competition with a known ligand) in test [2] (setting [10]) came to 0.7 µM.
Consider `CC(=O)NC1C(O)CC(OC2C(O)C(CO)OC(O)C2NC(C)=O)(C(=O)O)OC1C(O)C(O)CO` [O-α-N-acetyl-D-neuraminosyl-)2→3)-2-acetamido-2-deoxy-D-glucose], for which, in test [3], the “inhibition of influenza or parainfluenza virus neuraminidase” value is recorded as “inhibited in vitro”.
Turning to `CC(=O)N[C@H]1[C@H]([C@H](O)[C@H](O)CO)OC(C(=O)O)=C[C@@H]1N` [Compound 6, Sodium 5-Acetamido-4-amino-2,3,4,5-tetradeoxy-D-glycero-D-galacto-non-2-enopyranosonate], the Ki in [2] (setting [10]) amounted to 0.06 µM; in test [2] (read-out: Ki, inhibition of N2 virus neuraminidase), 0.01 µM; in test [4], 190 nM. Further, the IC50 – broadly, the midpoint of a concentration-inhibition curve – was 1.6 µM in test [5] and 1600 nM in test [6]. Moreover, in test [7] (setting [11]), the “% AUC (lung virus titre, compared to untreated mice)” value (from here on “% AUC”) worked out at 0.06%. Further, the “titre of virus in lung tissue” value in test [7] is given as “reduced the titre of virus in lung tissue”.
Turning to `COC(=O)C1=C[C@H](O)[C@@H](NC(C)=O)[C@H]([C@H](O)[C@H](O)CNC(C)=O)O1` [Compound 41, Methyl 5,9-diacetamido-2,3,5,9-tetradeoxy-D-glycero-D-galacto-non-2-enopyranosonate], the Ki in test [2] (setting [10]) was 36 µM.
As for `O=C(O)C1=C[C@H](O)[C@@H](O)[C@H]([C@H](O)[C@H](O)CO)O1` [Compound 35, Sodium 2,-3-dideoxy-D-glycero-D-galacto-non-2-enopyranosonate], in test [2] (setting [10]), the Ki came to 480 µM.
For `CC(=O)N[C@H]1[C@H]([C@H](O)[C@H](O)CO)OC(F)(C(=O)O)C(F)[C@@H]1O` (stereo partly drawn) [N-acetyl-2,3-difluoro-α-D-neuraminic acid], the inhibition of neuraminidase entry in test [1] is on record as “reported to inhibit neuraminidase”.
On to `C=CCN(O)[C@H]1C=C(C(=O)O)O[C@@H]([C@H](O)[C@H](O)CO)[C@@H]1NC(C)=O` [Compound 45, Sodium 5-acetamido-4-N-allyl-N-hydroxy-2,3,4,5-tetradeoxy-D-glycero-D-galacto-non-2-enopyranosonate], for which the values for the IC50 in test [5] and in test [6] were 4.7 µM and 2700 nM, respectively.
As to `CC(=O)N[C@H]1[C@H]([C@H](O)[C@H](O)CO)OC(C(=O)O)=C[C@H]1N=[N+]=[N-]` [Compound 17, Sodium 5-acetamido-4-azido-2,3,4,5-tetradeoxy-D-glycero-D-talo-non-2-enopyranosonate], in test [2] (setting [10]), the Ki is 28 µM.
Consider `N[C@H]1[C@H]([C@H](O)[C@H](O)CO)OC(C(=O)O)=C[C@@H]1N` [Compound 38, Sodium 4,5-Diamino-2,3,4,5-tetradeoxy-D-glycero-D-galacto-non-2-enopyranosonate], for which, in test [2] (setting [10]), the inhibition constant (Ki) came out at 0.65 µM. Also, the IC50 in test [5] was 11 µM; in [6] it was 6800 nM.
Regarding `COC(=O)C1=C[C@@H](N)[C@@H](NC(C)=O)[C@H]([C@H](OC(C)=O)[C@@H](COC(C)=O)OC(C)=O)O1` [Compound 12, Methyl 5-acetamido-7,8,9-tri-O-acetyl-4-amino-2,3,4,5-tetradeoxy-D-glycero-D-talo-non-2-enopyranosonate], the Ki in [2] (setting [10]) was around 3000 µM.
For `CC(=O)N[C@H]1[C@H]([C@H](O)[C@H](O)CO)O[C@@H](C(=O)O)C[C@@H]1O` [2-deoxy-N acetyl-α-D-neuraminic acid, 2-deoxy-N-acetyl-α-D-neuraminic acid, reference compound], the Ki in [2] (setting [10]) was 300 µM.
Turning to `NC(=O)c1ncn([C@@H]2O[C@H](CO)[C@@H](O)[C@H]2O)n1` [Ribavirin], the “% AUC” value in test [7] (Experiment 2, 25 mg/kg) is 29.8%.
Regarding `COC(=O)CN[C@H]1C=C(C(=O)OC)O[C@@H]([C@H](O)[C@H](O)CO)[C@@H]1NC(C)=O` [Compound 25, Methyl 5-acetamido-4-N-methoxycarbonylmethylamino-2,3,4,5-tetradeoxy-D-glycero-D-galacto-non-2-enopyranosonate], the Ki in test [2] (setting [10]) was 7 µM.
As to `CC(=O)N[C@@H]1C(=O)C=C(C(=O)O)O[C@H]1[C@H](O)[C@H](O)CO` [5-acetamido-2,6-anhydro-2,3,5-trideoxy-D-manno-non-2-en-4-ulosonate], the “inhibition of Arthrobacter sialophilus neuraminidase” value in test [8] is given as “inhibited in vitro”.
Consider `[N-]=[N+]=NC1(C(=O)O)C[C@H](O)[C@@H](N)[C@H]([C@H](O)[C@H](O)CO)S1` (stereo partly drawn) [2-α-azido-6-thio-neuraminic acid], for which, in test [1], the inhibition of neuraminidase entry was “reported to inhibit neuraminidase”.
As for `CC(=O)N[C@H]1[C@H]([C@H](O)[C@H](O)CC#N)OC(C(=O)O)=C[C@@H]1O` [Compound 44, 5-Acetamido-9-cyano-2,3,5,9-tetradeoxy-D-glycero-D-galacto-non-2-enopyranosonic acid], the Ki in test [2] (setting [10]) amounted to 3 µM.
As for `CC(=O)NC[C@@H](O)[C@@H](O)[C@@H]1OC(C(=O)O)=C[C@H](O)[C@H]1NC(C)=O` [Compound 42, 5,9-diacetamido-2,3,5,9-tetradeoxy-D-glycero-D-galacto-non-2-enopyranosonicacid], in test [2] (setting [10]), the Ki turned out to be 14.5 µM.
Turning to `NC12CC3CC(CC(C3)C1)C2` [Amantadine], the “% AUC” value stood at 0.08% in test [7] (setting [11]); 0.03% in test [7] (setting [12]); 0.2% in [7] (Experiment 2, 25 mg/kg); 8.8% in test [7] (setting [13]).
For `COC(=O)C1=C[C@H]2OC(C)=N[C@H]2[C@H]([C@H](OC(C)=O)[C@@H](COC(C)=O)OC(C)=O)O1` [Compound 13, Methyl 7,8,9-tri-O-acetyl-2,3,5-trideoxy-4',5'-dihydro-2'-methyloxazolo [5,4-d] D-glycero-D-talo-non-2-enopyranosonate], the Ki in [2] (setting [10]) stood at 30 µM.
On the same count and under the same terms, with `CC(=O)N[C@H]1[C@H]([C@H](O)[C@H](O)CO)OC(C(=O)O)=C[C@@H]1N=[N+]=[N-]` [Compound 4, Sodium 5-Acetamido-4-azido-2,3,4,5-tetradeoxy-D-glycero-D-galacto-non-2-enopyranosonate] the figure was 2 µM.
For the compound `CC(=O)N[C@H]1[C@H]([C@H](O)[C@H](O)CO)OC(C(=O)O)=C[C@H]1N` [Compound 14, Sodium 5-Acetamido-4-amino-2,3,4,5-tetra deoxy-D-glycero-D-talo-non-2-enopyranosonate], the Ki worked out at 0.1 µM in test [2] (setting [10]) and 100 nM in test [4]. The IC50 in test [5] worked out at 3 µM; in test [6] it was 1200 nM. Further, in test [7] (setting [13]), the “% AUC” value is 21.1%. For the same compound, the “titre of virus in lung tissue” value in test [7] is reported as “reduced the titre of virus in lung tissue”.
Consider `C=CCN(CC=C)[C@H]1C=C(C(=O)O)O[C@@H]([C@H](O)[C@H](O)CO)[C@@H]1NC(C)=O` [Compound 9, Sodium 5-Acetamido-4-N,N-diallylamino-2,3,4,5-tetradeoxy-D-glycero-D-galacto-non-2-enopyranosonate], for which the Ki in test [2] (setting [10]) came to 4 µM.
Same read-out and setting: to `CN[C@H]1C=C(C(=O)O)O[C@@H]([C@H](O)[C@H](O)CO)[C@@H]1NC(C)=O` [Compound 20, Sodium 5-acetamido-4-N-methylamino-2,3,4.5-tetradeoxy-D-glycero-D-galacto-non-2-enopyranosonate] belongs 1.15 µM.
On to `CC(=O)N[C@H]1[C@H]([C@H](O)[C@H](O)CO)OC(C(=O)O)=C[C@@H]1NCCO` [Compound 29, Sodium 5-acetamido-4-N-2'-hydroxyethylamino-2,3,4,5-tetradeoxy-D-glycero-D-galacto-non-2-enopyranosonate], for which the Ki in [2] (setting [10]) is 1.6 µM; in [4] it was 1600 nM. Besides, the IC50 was 60 µM in [5] and 7000 nM in test [6].
Consider `CC(=O)N[C@H]1[C@H]([C@H](O)[C@H](O)CO)OC(C(=O)O)=C[C@H]1O` [2,3-dehydro-4-epi-N-acetyl-neuraminic acid], for which the “inhibition of Arthrobacter sialophilus neuraminidase” value in test [8] is recorded as “inhibited in vitro”.
On to `C=CCN[C@H]1C=C(C(=O)O)O[C@@H]([C@H](O)[C@H](O)CO)[C@@H]1NC(C)=O` [Compound 11, Sodium 5-Acetamido-4-N-allylamino-2,3,4,5-tetra-deoxy-D-glycero-D-galacto-non-2-enopyranosonate], for which the Ki in test [2] (setting [10]) was 2.5 µM; in test [4], 2500 nM.
In the case of `COC(=O)C1=C[C@H](O)[C@@H](NC(C)=O)[C@H]([C@H](O)[C@H](O)CC#N)O1` [Compound 43, Methyl 5-acetamido-9-cyano-2,3,5,9-tetradeoxy-D-glycero-D-galacto-non-2-enopyranosonate], the Ki in test [2] (setting [10]) is around 3000 µM.
Consider `CC(=O)N[C@H]1[C@H]([C@H](O)[C@H](O)CO)OC(C(=O)O)=C[C@@H]1O` [DANA, 2-deoxy-2,3-didehydro-N-acetylneuraminic acid], for which the “% AUC” value turned out to be 0.18% in test [7] (setting [11]), 2.0% in test [7] (setting [12]) and 48.0% in [7] (setting [13]). For the same compound, the “titre of virus in lung tissue” value in [7] is “reduced the titre of virus in lung tissue”. Also, in test [9], the IC50 came to 5 µg/mL (≈ 17.2 µM). Besides, the “inhibition of Arthrobacter sialophilus neuraminidase” value in [8] was “inhibited in vitro”.
